One assay concerns the target T1, GLP-1 receptor (Rattus norvegicus, UniProt P32301).
T1 construct: 96-well assay plate containing RIN m5f cell membranes in an ATP/GTP mixture; endogenous in cells; host or cells: RIN m5f cell membranes
T1 sequence (P32301 22-463): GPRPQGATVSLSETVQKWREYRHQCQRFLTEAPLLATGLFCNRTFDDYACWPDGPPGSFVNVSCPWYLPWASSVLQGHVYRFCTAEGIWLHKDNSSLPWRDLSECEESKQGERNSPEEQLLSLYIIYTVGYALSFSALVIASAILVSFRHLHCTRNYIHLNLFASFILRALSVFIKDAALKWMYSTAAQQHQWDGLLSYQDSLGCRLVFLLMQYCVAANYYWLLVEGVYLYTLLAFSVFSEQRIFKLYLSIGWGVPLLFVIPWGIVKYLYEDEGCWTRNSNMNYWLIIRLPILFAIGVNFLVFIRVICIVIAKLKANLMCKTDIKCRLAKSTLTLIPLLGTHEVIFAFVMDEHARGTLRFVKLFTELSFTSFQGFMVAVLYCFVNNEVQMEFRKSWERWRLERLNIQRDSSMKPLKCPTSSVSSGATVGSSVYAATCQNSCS
Description: in vitro functional assay at the GLP-1 receptor (cyclase, cAMP production in RIN m5f cell membranes). In kind it is biochemical. As to conditions: Cyclase GLP-1 Receptor EC50 (nM), Table 1; RIN m5f cell membranes, cAMP production (AlphaScreen). A digest of the protocol:
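EC50 values were derived from four-parameter logistic fits of concentration-response curves for cAMP production. cAMP was measured by a competitive AlphaScreen assay using a biotinylated-cAMP probe. Membranes from RIN m5f rat cells were incubated with test compounds in an ATP/GTP mix.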

A further assay has as its system NIH/Swiss female mice. Description: in vivo basal glucose lowering assay. Conditions: subcutaneous injection. How it is done:
Some compounds shown in Table 1 below were analyzed in an in vivo basal glucose lowering assay using the following procedure: A subcutaneous injection of either 200 μl phosphate-buffered saline (PBS) vehicle or test article was given immediately following baseline glucose (t=0) to NIH/Swiss female mice. Tail blood glucose samples were measured at t=2 and 4 hours post dose using a OneTouch® Ultra® (LifeScan, Inc., a Johnson & Johnson Company, Milpitas, Calif.). Body weight was measured daily. Significant test sample effects were identified by ANOVA (p<0.05), followed by Dunnett's post test using GraphPad Prism version 4.00 for Windows (GraphPad Software, San Diego Calif.).

Setting [1] is: Table 1, result in words (inactive / similar to GLP-1).

Each structure is given as a SMILES string.

What is called EC50 is the concentration that produces a half-maximal response.

`CC[C@H](C)[C@H](NC(=O)[C@H](Cc1ccccc1)NC(=O)[C@H](CC(C)C)NC(=O)[C@H](CCCNC(=N)N)NC(=O)[C@@H](NC(=O)[C@H](C)NC(=O)[C@H](CCC(=O)O)NC(=O)[C@H](CCC(=O)O)NC(=O)[C@H](CCC(=O)O)NC(=O)[C@H](CC(C)C)NC(=O)[C@H](CCC(N)=O)NC(=O)[C@H](CCCCN)NC(=O)[C@H](CO)NC(=O)[C@H](CC(C)C)NC(=O)[C@H](CC(=O)O)NC(=O)[C@H](CO)NC(=O)[C@@H](NC(=O)[C@H](Cc1ccccc1)NC(=O)[C@@H](NC(=O)[C@@H]1CSC2[C@H](CC(=O)O)[C@H](NC(=O)[C@H](C)NC(=O)[C@@H](N)Cc3c[nH]cn3)C(=O)N21)[C@@H](C)O)[C@@H](C)O)C(C)C)C(=O)N[C@@H](CCC(=O)O)C(=O)N[C@@H](Cc1c[nH]c2ccccc12)C(=O)N[C@@H](CC(C)C)C(=O)N[C@@H](CCCCN)C(=O)N[C@@H](CCC(N)=O)C(=O)NCC(=O)NCC(=O)N1CCC[C@H]1C(=O)N[C@@H](CO)C(=O)N[C@@H](CCCCN)C(=O)N[C@@H](CCC(=O)O)C(=O)N[C@H](C(=O)N[C@H](C(=O)N[C@@H](CO)C(=O)O)[C@@H](C)CC)[C@@H](C)CC` (some centres unmarked) [16A] had an EC50 at GLP-1 receptor of 0.52 nM. The “In Vivo Glucose-Lowering Assay” value in the assay on NIH/Swiss female mice (setting [1]) is “inactive”.

Compound `CC[C@H](C)[C@H](NC(=O)[C@H](Cc1ccccc1)NC(=O)[C@H](CC(C)C)NC(=O)[C@H](CCCNC(=N)N)NC(=O)[C@@H](NC(=O)[C@H](C)NC(=O)[C@H](CCC(=O)O)NC(=O)[C@H](CCC(=O)O)NC(=O)[C@H](CCC(=O)O)NC(=O)[C@H](CC(C)C)NC(=O)[C@H](CCC(N)=O)NC(=O)[C@H](CCCCN)NC(=O)[C@H](CO)NC(=O)[C@H](CC(C)C)NC(=O)[C@H](CC(=O)O)NC(=O)[C@H](CO)NC(=O)[C@@H](NC(=O)[C@H](Cc1ccccc1)NC(=O)[C@@H](NC(=O)[C@@H]1CSC2C[C@@H](C(=O)O)[C@H](NC(=O)[C@H](C)NC(=O)[C@@H](N)Cc3c[nH]cn3)C(=O)N21)[C@@H](C)O)[C@@H](C)O)C(C)C)C(=O)N[C@@H](CCC(=O)O)C(=O)N[C@@H](Cc1c[nH]c2ccccc12)C(=O)N[C@@H](CC(C)C)C(=O)N[C@@H](CCCCN)C(=O)N[C@@H](CCC(N)=O)C(=O)NCC(=O)NCC(=O)N1CCC[C@H]1C(=O)N[C@@H](CO)C(=O)N[C@@H](CCCCN)C(=O)N[C@@H](CCC(=O)O)C(=O)N[C@H](C(=O)N[C@H](C(=O)N[C@@H](CO)C(=O)O)[C@@H](C)CC)[C@@H](C)CC` (some centres unmarked) [16C] came in with an EC50 on GLP-1 receptor of 1.1 nM. Further, in the assay with NIH/Swiss female mice (setting [1]), the “In Vivo Glucose-Lowering Assay” value was “inactive”.

For the compound `CC[C@H](C)[C@H](NC(=O)[C@H](Cc1ccccc1)NC(=O)[C@H](CC(C)C)NC(=O)[C@H](CCCNC(=N)N)NC(=O)[C@@H](NC(=O)[C@H](C)NC(=O)[C@H](CCC(=O)O)NC(=O)[C@H](CCC(=O)O)NC(=O)[C@H](CCC(=O)O)NC(=O)[C@H](CC(C)C)NC(=O)[C@H](CCC(N)=O)NC(=O)[C@H](CCCCN)NC(=O)[C@H](CO)NC(=O)[C@H](CC(C)C)NC(=O)[C@H](CC(=O)O)NC(=O)[C@H](CO)NC(=O)[C@@H](NC(=O)[C@H](Cc1ccccc1)NC(=O)[C@@H](NC(=O)CN1C[C@H](CC(=O)O)[C@H](NC(=O)[C@H](C)NC(=O)[C@@H](N)Cc2c[nH]cn2)C1=O)[C@@H](C)O)[C@@H](C)O)C(C)C)C(=O)N[C@@H](CCC(=O)O)C(=O)N[C@@H](Cc1c[nH]c2ccccc12)C(=O)N[C@@H](CC(C)C)C(=O)N[C@@H](CCCCN)C(=O)N[C@@H](CCC(N)=O)C(=O)NCC(=O)NCC(=O)N1CCC[C@H]1C(=O)N[C@@H](CO)C(=O)N[C@@H](CCCCN)C(=O)N[C@@H](CCC(=O)O)C(=O)N[C@H](C(=O)N[C@H](C(=O)N[C@@H](CO)C(=O)O)[C@@H](C)CC)[C@@H](C)CC` [16D], the EC50 at GLP-1 receptor was determined as 1 nM. Besides, the “In Vivo Glucose-Lowering Assay” value in the assay on NIH/Swiss female mice (setting [1]) is “inactive”.

On GLP-1 receptor, `CC[C@H](C)[C@H](NC(=O)[C@H](Cc1ccccc1)NC(=O)[C@H](CC(C)C)NC(=O)[C@H](CCCNC(=N)N)NC(=O)[C@@H](NC(=O)[C@H](C)NC(=O)[C@H](CCC(=O)O)NC(=O)[C@H](CCC(=O)O)NC(=O)[C@H](CCC(=O)O)NC(=O)[C@H](CC(C)C)NC(=O)[C@H](CCC(N)=O)NC(=O)[C@H](CCCCN)NC(=O)[C@H](CO)NC(=O)[C@H](CC(C)C)NC(=O)[C@H](CC(=O)O)NC(=O)[C@H](CO)NC(=O)[C@@H](NC(=O)[C@H](Cc1ccccc1)NC(=O)[C@@H](NC(=O)[C@H](C)N1CC[C@@H](C(=O)O)[C@H](NC(=O)[C@H](C)NC(=O)[C@@H](N)Cc2c[nH]cn2)C1=O)[C@@H](C)O)[C@@H](C)O)C(C)C)C(=O)N[C@@H](CCC(=O)O)C(=O)N[C@@H](Cc1c[nH]c2ccccc12)C(=O)N[C@@H](CC(C)C)C(=O)N[C@@H](CCCCN)C(=O)N[C@@H](CCC(N)=O)C(=O)NCC(=O)NCC(=O)N1CCC[C@H]1C(=O)N[C@@H](CO)C(=O)N[C@@H](CCCCN)C(=O)N[C@@H](CCC(=O)O)C(=O)N[C@H](C(=O)N[C@H](C(=O)N[C@@H](CO)C(=O)O)[C@@H](C)CC)[C@@H](C)CC` [16F] displayed an EC50 of 0.61 nM. In addition, in the assay on NIH/Swiss female mice (Table 1, time printed in minutes), the “In Vivo Glucose-Lowering Assay” value was “about 30 minutes”.

The values above are taken from patent US8642544B2, “N-terminus conformationally constrained GLP-1 receptor agonist compounds” (Amylin Pharmaceuticals, LLC, priority 2009, dated 2014).
